Laboratory results from patent publication EP0536603A1, “N-Methyl-nimodipine, process for its preparation, and its use as cerebral vasodilator” (BAYER AG, priority 1991, dated 1993).

Columns and labels:
[1] = Plasma levels after oral administration; assay type: in vivo
Ratten = test: Rat swim test (Porsolt), antidepressant effect; assay type: in vivo; conditions: rats
Protocol: Die vorzügliche Eignung von N-Methyl-Nimodipin als Prodrug für Nimodipin zeigt sich auch in seiner antidepressiven Wirkung. Im Rattenschwimmtest (vgl. R.D. Porsolt et al., European Journal of Pharmacology 47; 379 bis 391) zeigen Ratten, die 20 mg der erfindungsgemäßen Verbindung per os appliziert bekommen, eine um ca. 20 % reduzierte Immobilitätsphase im Vergleich zur Kontrolle (n = 6).

Compound	Plasmaspiegel von Nimodipin und bekannten Nimodipinmetaboliten ([1]; oral administration of N-Methyl-nimodipin, after 15 minutes, compared with plasma levels after multiple administration of corresponding amounts of Nimodipin)	Plasmakonzentration an unverändertem N-Methyl-Nimodipin ([1]; oral administration, same time point (15 minutes), relative to the plasma levels of Nimodipin and metabolites)	reduzierte Immobilitätsphase im Vergleich zur Kontrolle (Ratten; 20 mg per os, n = 6)	Immobilitätsphase im Rattenschwimmtest, in words (Ratten; corresponding amount of Nimodipin, compared with N-Methyl-Nimodipin)
COCCOC(=O)C1=C(C)N(C)C(C)=C(C(=O)OC(C)C)C1c1cccc([N+](=O)[O-])c1 (racemic) [N-Methyl-nimodipin, (±)-1,2,6-Trimethyl-4-(3-nitrophenyl)-1,4-dihydropyridin-3,5-dicarbonsäure-isopropyl-2-methoxyethyl-ester]	mindestens so hoch sind wie die entsprechenden Plasmaspiegel nach Mehrfachapplikation entsprechender Nimodipinmengen	etwa doppelt so hohe Plasmakonzentration	ca. 20%	
COCCOC(=O)C1=C(C)NC(C)=C(C(=O)OC(C)C)C1c1cccc([N+](=O)[O-])c1 (racemic) [Nimodipin, (±)2,6-Dimethyl-4-(3-nitrophenyl)-1,4-dihydropyridin-3,5-dicarbonsäure-isopropyl-2-methoxyethyl-ester]				vergleichbare Ergebnisse
